Reference: publication PMC3690532 (Structure (London, England : 1993), 2013)

Biological target: T1, S. enterica MTAN (SeMTAN) (Salmonella choleraesuis, UniProt Q57T48)
T1 sequence (Q57T48 1-232): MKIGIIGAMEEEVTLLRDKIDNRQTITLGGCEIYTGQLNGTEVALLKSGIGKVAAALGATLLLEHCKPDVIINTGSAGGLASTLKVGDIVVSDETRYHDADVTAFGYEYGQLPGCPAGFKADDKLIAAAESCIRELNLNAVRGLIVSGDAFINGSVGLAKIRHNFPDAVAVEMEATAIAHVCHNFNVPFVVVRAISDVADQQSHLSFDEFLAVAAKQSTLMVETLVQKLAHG
Assay: slow-onset inhibition constant
Type: biochemical
Conditions: for ΔG (Gibbs free energy): generated from Ki* using ΔG = RT ln Ki*; for ΔΔG: methylthio-DADMe-ImmA as reference

Nc1ncnc2c(CN3C[C@H](CSCC[C@H](N)C(=O)O)[C@@H](O)C3)c[nH]c12 [Homocysteine-DADMe-ImmA, reference compound]
ΔG of binding higher when compared to MT-, DiEGT- and BuT-DADMe-ImmA (difference versus the three inhibitors): 1.5 to 2.2 kcal/mol | ΔG (Gibbs free energy): -13.9 ± 0.1 kcal/mol | ΔΔG: 1.5 kcal/mol

Nc1ncnc2c(CN3CC(O)C(CSCCCO)C3)c[nH]c12 (stereo not drawn) [3-Hydroxypropylthio-DADMe-ImmA]
ΔG (Gibbs free energy): -15.2 ± 0.2 kcal/mol | ΔΔG: 0.2 kcal/mol

Nc1ncnc2c(CN3CC(O)C(CSCCCCO)C3)c[nH]c12 (stereo not drawn) [4-Hydroxybutylthio-DADMe-ImmA]
ΔG (Gibbs free energy): -14.8 ± 0.1 kcal/mol | ΔΔG: 0.6 kcal/mol

CCCCSC[C@H]1CN(Cc2c[nH]c3c(N)ncnc23)C[C@@H]1O [Butylthio-DADMe-ImmA, reference compound]
ΔG (Gibbs free energy): -16.1 ± 0.2 kcal/mol | ΔΔG: -0.7 kcal/mol

CSC[C@H]1CN(Cc2c[nH]c3c(N)ncnc23)C[C@@H]1O [Methylthio-DADMe-ImmA, reference compound]
ΔG (Gibbs free energy): -15.4 ± 0.1 kcal/mol | ΔΔG: 0 kcal/mol

Nc1ncnc2c(CN3CC(O)C(CSCCOCCO)C3)c[nH]c12 (stereo not drawn) [2-(2-hydroxyethoxy)ethylthio-DADMe-ImmA]
ΔG (Gibbs free energy): -15.4 ± 0.1 kcal/mol | ΔΔG: 0 kcal/mol

Nc1ncnc2c(CN3CC(O)C(CSCCO)C3)c[nH]c12 (stereo not drawn) [2-Hydroxyethylthio-DADMe-ImmA]
ΔG (Gibbs free energy): -14.9 ± 0.1 kcal/mol | ΔΔG: 0.5 kcal/mol
